Experimental data reported in ChEMBL document CHEMBL1141154, “Indolin-2-ones with high in vivo efficacy in a model for multiple sclerosis” (J Med Chem, 2005).

Tests used:
Mus musculus [1] = test: In vivo percent inhibition of multiple sclerosis (MS) by the compound upon oral administration at a dose of 50 mg/kg on EAE model (mice immunized for EAE induction and assessed clinically for 21 days); format: functional; conditions: 504 h
Mus musculus [2] = test: In vivo percent inhibition of multiple sclerosis (MS) by the compound upon intraperitoneal administration at a dose of 50 mg/kg on EAE model (mice immunized for EAE induction and assessed clinically for 21 days); format: functional; conditions: ip, 504 h
PBMC = test: In vitro inhibitory concentration on the production of pro-inflammatory cytokine IL-2 in PBMC (Peripheral blood mononuclear cells) determined by IL-2 PBMC assay; format: functional, cell-based; conditions: Homo sapiens
Mus musculus [3] = test: In vivo percent inhibition of multiple sclerosis (MS) by the compound upon intraperitoneal administration at a dose of 50 mg/kg on EAE model (mice immunized for EAE induction and assessed clinically for 21 days); non significant effect; format: functional; conditions: ip, 504 h
[4] = biological target: Vascular endothelial growth factor receptor 2 (Homo sapiens, UniProt P35968); test: In vitro inhibition of KDR
Sequence of Vascular endothelial growth factor receptor 2 (P35968 whole entry): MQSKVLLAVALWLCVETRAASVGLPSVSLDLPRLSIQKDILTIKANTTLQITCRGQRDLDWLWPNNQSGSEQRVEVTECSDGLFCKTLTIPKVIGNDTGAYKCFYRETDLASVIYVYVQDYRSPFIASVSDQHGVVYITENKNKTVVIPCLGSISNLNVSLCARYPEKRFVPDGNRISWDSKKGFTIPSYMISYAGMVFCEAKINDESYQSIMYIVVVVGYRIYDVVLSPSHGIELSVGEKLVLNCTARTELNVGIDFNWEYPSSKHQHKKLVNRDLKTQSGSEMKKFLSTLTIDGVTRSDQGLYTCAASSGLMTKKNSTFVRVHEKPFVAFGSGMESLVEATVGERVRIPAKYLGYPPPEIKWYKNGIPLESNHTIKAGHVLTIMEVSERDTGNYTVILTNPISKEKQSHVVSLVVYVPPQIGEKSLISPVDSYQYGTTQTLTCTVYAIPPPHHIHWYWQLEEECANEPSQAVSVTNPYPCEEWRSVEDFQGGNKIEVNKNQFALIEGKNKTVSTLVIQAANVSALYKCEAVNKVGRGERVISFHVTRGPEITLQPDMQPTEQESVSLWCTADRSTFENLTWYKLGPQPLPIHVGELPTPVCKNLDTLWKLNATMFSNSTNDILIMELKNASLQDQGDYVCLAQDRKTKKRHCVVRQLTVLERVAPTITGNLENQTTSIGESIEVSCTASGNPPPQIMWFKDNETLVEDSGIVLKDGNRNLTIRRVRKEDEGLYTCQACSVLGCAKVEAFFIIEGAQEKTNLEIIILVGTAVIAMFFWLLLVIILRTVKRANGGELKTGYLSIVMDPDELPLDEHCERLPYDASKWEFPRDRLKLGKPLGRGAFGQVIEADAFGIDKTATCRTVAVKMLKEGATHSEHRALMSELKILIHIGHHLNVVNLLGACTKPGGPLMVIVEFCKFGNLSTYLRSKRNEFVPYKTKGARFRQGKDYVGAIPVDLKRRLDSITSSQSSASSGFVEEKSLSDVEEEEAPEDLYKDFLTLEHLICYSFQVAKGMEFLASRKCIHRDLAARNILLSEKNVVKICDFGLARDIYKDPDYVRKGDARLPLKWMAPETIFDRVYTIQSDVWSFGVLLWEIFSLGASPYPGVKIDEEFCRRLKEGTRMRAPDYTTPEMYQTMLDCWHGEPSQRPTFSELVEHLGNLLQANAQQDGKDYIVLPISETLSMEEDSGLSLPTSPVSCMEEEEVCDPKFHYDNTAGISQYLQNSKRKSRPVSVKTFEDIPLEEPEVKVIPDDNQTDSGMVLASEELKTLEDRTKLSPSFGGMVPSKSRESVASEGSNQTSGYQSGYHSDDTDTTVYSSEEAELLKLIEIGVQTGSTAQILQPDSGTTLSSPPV

SMILES | inhibition in vivo at 50 mg/kg (Mus musculus [1]) [%] | inhibition in vivo at 50 mg/kg (Mus musculus [2]) [%] | IC50 (PBMC) [nM] | inhibition in vivo at 50 mg/kg (Mus musculus [3]) [%] | IC50 [4] [nM]
COc1ccc(OC)c(/C=C2/C(=O)Nc3ccccc32)c1 | -49 | -90 | 21 | – | –
Cc1cc(C)c(/C=C2\C(=O)Nc3ccc(O)cc32)[nH]1 | – | – | 1000 | -12 | 100
Cc1cc(C)c(/C=C2\C(=O)N(CN3CCN(C)CC3)c3ccccc32)[nH]1 | -56 | – | – | – | –
O=C1Nc2ccccc2/C1=C/c1c[nH]c2ccccc12 | 32 | 84 | 8 | – | –
CC(=O)ON1C(=O)/C(=C\c2[nH]c(C)cc2C)c2ccccc21 | – | -48 | 11 | – | 400
CCOC(=O)c1cc(C)c(/C=C2\C(=O)Nc3ccccc32)[nH]1 | – | -44 | 14 | – | 8000
Cc1cc(C)c(/C=C2\C(=O)N(O)c3ccccc32)[nH]1 | – | -67 | 18 | – | 500
Cc1[nH]c(/C=C2\C(=O)Nc3ccccc32)c(C)c1Br | – | -78 | 3 | – | 320
Clc1ccc(Nc2nnc(Cc3ccncc3)c3ccccc23)cc1 [VATALANIB] | – | – | > 1000 | – | –
Cc1cc(C(=O)O)[nH]c1/C=C1\C(=O)Nc2ccccc21 | – | – | > 1000 | -23 | > 10000
Cc1cc(C(=O)NCCO)[nH]c1/C=C1\C(=O)Nc2ccccc21 | – | -41 | 30 | – | > 10000
Cc1cc(C)c(/C=C2\C(=O)Nc3ccccc32)[nH]1 [SEMAXANIB] | – | -98 | – | – | –
O=C1Nc2ccccc2/C1=C/c1ccc[nH]1 | – | – | – | -9 | –
Cc1cc(CO)[nH]c1/C=C1\C(=O)Nc2ccccc21 | – | -57 | 50 | – | 320
Cc1[nH]c(/C=C2\C(=O)Nc3ccccc32)c(C)c1Cl | – | -96 | 4 | – | 1000
